From the supplement of paper PMC10307832

What was measured:
Experiment in all cases: relative viability (nuclei count vs DMSO), 5 days (fraction); higher = more cells survive
Olaparib + Alpelisib = compound: O=C(c1cc(Cc2n[nH]c(=O)c3ccccc23)ccc1F)N1CCN(C(=O)C2CC2)CC1 [Olaparib] + Cc1nc(NC(=O)N2CCC[C@H]2C(N)=O)sc1-c1ccnc(C(C)(C)C(F)(F)F)c1 [Alpelisib] (partner 2 µM)
In short: (§1)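 Relative viability equals treated-well nuclei counts divided by vehicle-well nuclei counts. Counts came from 4× images of lung cancer cell lines grown in 1536-well plates for 5 days after pin-tool dosing on the day after seeding. Dosing used one drug alone or a fixed anchor-drug dose plus five library-drug doses (not always all listed) in √10 steps, and values are medians of duplicate plates.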

Crizotinib + Palbociclib = compound: C[C@@H](Oc1cc(-c2cnn(C3CCNCC3)c2)cnc1N)c1c(Cl)ccc(F)c1Cl [Crizotinib] + CC(=O)c1c(C)c2cnc(Nc3ccc(N4CCNCC4)cn3)nc2n(C2CCCC2)c1=O [Palbociclib] (partner 0.5 µM)
In short: as §1

Carfilzomib + Alpelisib = compound: CC(C)C[C@H](NC(=O)[C@H](CCc1ccccc1)NC(=O)CN1CCOCC1)C(=O)N[C@@H](Cc1ccccc1)C(=O)N[C@@H](CC(C)C)C(=O)[C@@]1(C)CO1 [Carfilzomib] + Cc1nc(NC(=O)N2CCC[C@H]2C(N)=O)sc1-c1ccnc(C(C)(C)C(F)(F)F)c1 [Alpelisib] (partner 2 µM)
In short: as §1

Carfilzomib + Phenformin = compound: CC(C)C[C@H](NC(=O)[C@H](CCc1ccccc1)NC(=O)CN1CCOCC1)C(=O)N[C@@H](Cc1ccccc1)C(=O)N[C@@H](CC(C)C)C(=O)[C@@]1(C)CO1 [Carfilzomib] + N=C(N)NC(=N)NCCc1ccccc1 [Phenformin] (partner 250 µM)
In short: as §1

Cell Line	relative viability (Olaparib + Alpelisib; first compound 0.08 µM)	relative viability (Olaparib + Alpelisib; first compound 0.253 µM)	relative viability (Olaparib + Alpelisib; first compound 2.53 µM)	relative viability (Olaparib + Alpelisib; first compound 8 µM)	relative viability (Crizotinib + Palbociclib; first compound 0.01 µM)	relative viability (Crizotinib + Palbociclib; first compound 0.03162 µM)	relative viability (Crizotinib + Palbociclib; first compound 0.1 µM)	relative viability (Crizotinib + Palbociclib; first compound 0.3162 µM)	relative viability (Crizotinib + Palbociclib; first compound 1 µM)	relative viability (Carfilzomib + Alpelisib; first compound 0.001 µM)	relative viability (Carfilzomib + Alpelisib; first compound 0.003162 µM)	relative viability (Carfilzomib + Alpelisib; first compound 0.01 µM)	relative viability (Carfilzomib + Alpelisib; first compound 0.03162 µM)	relative viability (Carfilzomib + Alpelisib; first compound 0.1 µM)	relative viability (Carfilzomib + Phenformin; first compound 0.001 µM)	relative viability (Carfilzomib + Phenformin; first compound 0.003162 µM)	relative viability (Carfilzomib + Phenformin; first compound 0.01 µM)	relative viability (Carfilzomib + Phenformin; first compound 0.03162 µM)	relative viability (Carfilzomib + Phenformin; first compound 0.1 µM)
SK-MES-1	0.925	0.764	1.02	0.697	0.295	0.318	0.341	0.312	0.302	0.867	1.04	0.992	0.782	0.162	0.655	0.745	0.635	0.551	0.146
NCI-H661	0.87	0.511	0.618	0.455	0.376	0.425	0.44	0.435	0.423	0.778	0.93	0.495	0.615	0.181	0.268	0.272	0.272	0.248	0.215
NCI-H1993	0.691	0.657	0.746	0.742	0.641	0.67	0.666	0.535	0.426	0.717	0.654	0.765	0.521	0.483	0.482	0.498	0.42	0.477	0.45
NCI-H23	0.658	0.546	0.539	0.384	0.343	0.504	0.53	–	0.536	0.741	0.84	0.857	0.207	0.112	0.772	0.684	0.762	0.36	0.134
LCLC-97TM1	0.256	0.219	0.271	0.19	0.233	0.25	0.197	0.212	0.205	0.307	0.258	0.266	0.101	0.126	0.423	0.401	0.497	0.302	0.147
NCI-H1915	0.986	0.938	0.767	0.59	0.517	0.525	0.488	0.51	0.476	1.05	1.1	1.04	0.689	0.0648	0.367	0.403	0.359	0.255	0.0555
LOU-NH91	0.783	0.758	0.745	0.647	0.583	0.534	0.516	0.533	0.5	0.702	0.742	0.662	0.307	0.267	0.724	0.806	0.543	0.215	0.221
EKVX	1.11	0.872	0.844	0.903	0.312	0.411	0.38	0.392	0.423	0.845	1.06	0.953	0.837	0.363	0.204	0.24	0.257	0.114	0.221
SK-LU-1	1.14	0.859	0.837	0.554	0.391	0.359	0.38	0.361	0.436	1.05	1	0.712	0.182	0.143	0.458	0.529	0.48	0.0958	0.114
LXF-289	1.16	1.02	1.07	1.03	0.583	0.591	0.626	0.569	0.582	1.06	1.07	0.979	0.0883	0.0581	0.524	0.519	0.393	0.226	0.0577
NCI-H2009	1.28	1.03	1.09	0.976	0.185	0.208	0.249	0.189	0.193	1.24	1.21	1.21	0.959	0.0547	0.514	0.564	0.449	0.155	0.101
HCC-827	1.02	0.934	0.828	0.876	0.455	0.492	0.498	0.463	0.413	0.943	0.948	0.945	0.934	0.357	0.37	0.44	0.428	0.394	0.279
NCI-H3122	0.7	0.638	0.867	0.668	0.176	0.184	0.16	0.2	0.187	0.748	0.847	0.748	0.959	0.69	0.375	0.446	0.366	0.278	0.0931
NCI-H2126	0.794	0.743	0.712	0.728	0.313	0.385	0.37	0.342	0.351	0.683	0.787	0.792	0.774	0.563	0.521	0.621	0.532	0.441	0.276
HARA	0.935	0.728	0.959	0.76	0.273	0.295	0.239	0.249	0.207	0.79	0.857	1.07	0.0576	0.0587	0.478	0.506	0.403	0.0435	0.0629
LC-2-ad	0.893	0.746	0.863	0.695	0.525	0.504	0.53	–	0.472	0.915	0.923	0.956	0.106	0.109	0.567	0.668	0.612	0.453	0.181
UMC-11	1.08	0.877	0.825	0.409	0.329	0.336	0.307	–	0.398	1.01	0.976	0.947	1.03	0.152	0.318	0.33	0.295	0.293	0.162

Cell Line	relative viability (Olaparib + Alpelisib; first compound 0.08 µM)	relative viability (Olaparib + Alpelisib; first compound 0.253 µM)	relative viability (Olaparib + Alpelisib; first compound 2.53 µM)	relative viability (Olaparib + Alpelisib; first compound 8 µM)	relative viability (Crizotinib + Palbociclib; first compound 0.01 µM)	relative viability (Crizotinib + Palbociclib; first compound 0.03162 µM)	relative viability (Crizotinib + Palbociclib; first compound 0.1 µM)	relative viability (Crizotinib + Palbociclib; first compound 0.3162 µM)	relative viability (Crizotinib + Palbociclib; first compound 1 µM)	relative viability (Carfilzomib + Alpelisib; first compound 0.001 µM)	relative viability (Carfilzomib + Alpelisib; first compound 0.003162 µM)	relative viability (Carfilzomib + Alpelisib; first compound 0.01 µM)	relative viability (Carfilzomib + Alpelisib; first compound 0.03162 µM)	relative viability (Carfilzomib + Alpelisib; first compound 0.1 µM)	relative viability (Carfilzomib + Phenformin; first compound 0.001 µM)	relative viability (Carfilzomib + Phenformin; first compound 0.003162 µM)	relative viability (Carfilzomib + Phenformin; first compound 0.01 µM)	relative viability (Carfilzomib + Phenformin; first compound 0.03162 µM)	relative viability (Carfilzomib + Phenformin; first compound 0.1 µM)
EMC-BAC-2	0.737	0.751	0.636	0.621	0.507	0.509	0.519	–	0.479	0.699	0.733	0.757	0.758	0.326	0.52	0.62	0.572	0.376	0.199
COR-L 105	1.17	1.02	0.87	0.639	0.4	0.427	0.397	0.388	0.409	1.04	1.16	0.85	0.566	0.246	0.572	0.391	0.526	0.261	0.203
NCI-H2347	1.11	0.978	0.932	0.783	0.384	0.441	0.465	0.437	0.335	0.96	1.18	1.05	0.875	0.345	0.274	–	0.341	0.163	0.141
HCC-78	0.424	0.328	0.445	0.365	0.431	0.537	0.545	–	0.513	0.327	0.45	0.362	0.287	0.157	0.539	0.683	0.78	0.668	0.235
COR-L23	0.811	0.586	0.532	0.357	0.289	0.269	0.298	0.256	0.328	0.735	0.879	0.709	0.0481	0.052	0.442	0.435	0.404	0.0562	0.0638
NCI-H322M	0.893	0.789	0.911	0.709	–	0.486	0.465	0.53	0.447	0.796	0.757	0.365	0.748	0.509	0.77	0.84	0.827	0.494	0.306
NCI-H2085	1.08	0.883	0.92	0.835	0.464	0.484	0.469	0.442	0.44	0.978	1.1	0.908	0.43	0.282	0.708	0.862	0.491	0.259	0.244
NCI-H2023	0.64	0.512	0.58	0.501	0.356	0.308	0.353	0.229	0.236	0.605	0.539	0.732	0.488	0.0793	0.406	0.444	0.416	0.145	0.0723
LU99A	0.608	0.487	0.471	0.422	0.411	0.407	0.384	0.42	0.357	0.503	0.543	0.49	0.198	0.148	0.921	0.806	0.721	0.757	0.263
NCI-H2228	0.746	0.657	0.78	0.534	0.714	0.608	0.691	0.432	0.367	0.662	0.73	0.49	0.108	0.156	0.332	0.293	0.207	0.0804	0.108
NCI-H1395	1	0.748	0.662	0.504	0.608	0.593	0.625	0.596	0.643	0.995	1.27	1.19	0.335	0.356	0.448	0.457	0.441	0.298	0.314
HCC-15	0.988	0.815	0.905	0.724	0.665	0.719	0.7	0.655	0.627	0.855	0.914	0.86	0.506	0.0942	0.443	0.538	0.48	0.222	0.1
RERF-LC-KJ	0.826	0.806	0.845	0.883	0.98	1.12	0.925	0.991	1.06	0.847	0.873	0.842	0.645	0.227	0.44	0.421	0.419	0.354	0.236
NCI-H647	1.41	1.05	1.29	0.954	0.358	0.421	0.368	0.404	0.526	1.14	1.19	0.71	0.025	0.0242	0.485	0.667	0.237	0.0272	0.0185
201T	0.985	0.938	1.01	0.98	0.336	0.375	0.329	0.384	0.344	0.986	1.05	0.983	1.07	0.893	0.404	0.482	0.483	0.464	0.328
HCC-366	0.392	0.31	0.3	0.15	0.381	0.429	0.347	–	0.449	0.402	0.518	0.413	0.285	0.0174	0.622	0.678	0.596	0.565	0.17
